Consider 14 compounds from patent publication US20070015737A1, “Compounds for inhibiting diseases and preparing cells for transplantation” (Neurochem (International) Limited, priority 1999, published 2007).

Values joined by “and” are separate entries in the source; they are usually repeats but may differ in a detail not shown here. Equal entries are not always repeated.

Experiment [1] addresses T1, IAPP (Homo sapiens, UniProt P10997).
T1 sequence (P10997 34-70 limits assumed): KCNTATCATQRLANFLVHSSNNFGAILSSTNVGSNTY
As to the kind of experiment: Rate of amyloid fibril formation by Thioflavine T spectroscopy (Example 1). Particulars: Thioflavine T fluorescence. The class given is biochemical. On the procedure:
Determination of the Rate of Amyloid Fibril Formation by Thioflavine T Spectroscopy
Detection of ThT fluorescence can be used as a sensitive assay for amyloid fibril formation under different conditions. This assay has been used in experiments to determine the effects of compounds of the invention on amyloid fibril formation.
Human IAPP was dissolved in 40% trifluoroethanol and freeze-dried into conveniently-sized aliquots. IAPP was prepared immediately before the measurements by dissolving in 40% 1,1,1,3,3,3-hexafluoro-2-propanol (HFIP) in water to maintain the peptide in alpha helical conformation and soluble. A stock solution of ThT (2.5 mM) was prepared, 7.9 mg in 10 mL Tris-HCl pH 7.0 and filtered (0.22 μm). Solutions were kept in the dark until use. Fluorescence was examined at 440 nm excitation (slit 5 nm), and emission at 482 nm (slit 10 nm) with stirring. […] of ThT stock (final concentration 62.5 μM) was added to peptide sample and made up to 1 mL in the cuvette. The sample was stirred for 5 min. before taking a reading. Measurements were made at an initial time point (5 min. from sample preparation), at intervals over the next 4-6 h and after overnight incubation at room temperature.

For experiment [2], the target named is T1, IAPP. As to the kind of experiment: Circular dichroism analysis of β-sheet conformation (Example 2). The format is biochemical. More on the design: add 10 μL of 10 mg/mL IAPP stock solution (final 100 μg peptide). Particulars: changes in ellipticity at 218 nm (β-sheet conformation); peptide:compound 1:10. On the procedure: Circular dichroism analysis was conducted to confirm the activity of certain therapeutic compounds in preventing or inhibiting IAPP-associated fibril formation in accordance with the present disclosure by determining the presence or absence of β-sheet conformation.
The assay, a co-incubation procedure, examines the ability of a compound or substance to inhibit the assembly of amyloid fibrils, e.g., to test for the presence of the amyloidotic b-sheet conformation in the presence of soluble IAPP. Samples are run in the presence and absence (i.e., water alone) of buffering agent, which is done to determine if competitive effects are seen with the ionic buffer (usually phosphate).
Add components used at a molar ratio of 1:10 [peptide:compound]; add 10 μL of 10 mg/mL IAPP stock solution (final 100 μg peptide) to the aqueous solution containing compound to a final volume of 400 μl. The pH of the final assay solution is measured to ensure there is no fluctuation and the spectrum is accumulated using the parameters as shown above.
Add desired amount of compound to achieve a 1:10 molar ratio in 10 mM phosphate buffer, pH 7. Add 10 μL of 10 mg/mL IAPP stock solution (final peptide 100 μg) to the phosphate buffered solution containing the compound and bring to a final volume of 400 μL. The pH of the final assay solution is measured to ensure there is no fluctuation and the spectrum is accumulated using the parameters as shown above.
In both assays, a control sample is run with each test group. This control contains peptide only in water or buffer at a similar final volume of 400 μl. Spectra for the control are collected initially (first run) and at the end of the test (final run) to ensure that the peptide has not undergone extensive aggregation during the course of the assay. Spectra for the controls are used to compare with the measurements obtained with the treated samples.
Make fresh 1 mg/mL stock solution of IAPP in 10 mM phosphate buffer, pH 7. Add desired amount of compound to achieve a 1:10 molar ratio in 10 mM phosphate buffer, pH 7. Incubate for 3 days at room temperature. Make up to final volume of 400 μL with 10 mM phosphate buffer, pH 7. The pH of the final assay solution is measured to ensure there is no fluctuation and the spectrum is accumulated using the parameters as shown above. A similar control is run for comparative purposes.
Plots of the spectra (control and treated) are individually assembled and the changes in ellipticity at 218 nm are examined. This minimum is directly correlated with the amount of peptide in β-sheet conformation present in the sample. Changes in either a positive or negative direction are noted and a relative value (“active” or “not active”) assigned to the compound as a measure of activity.
For orientation: CD spectra are sensitive to the conformation of chiral molecules.

In experiment [3] the target is T2, Human IAPP (hIAPP) (Homo sapiens, UniProt P10997).
T2 construct: Human IAPP (hIAPP) was synthesised by solid state synthesis (Advanced Biotechnologies, UK); purchased Advanced Biotechnologies, UK; host or cells: chemical solid-phase synthesis
T2 sequence (P10997 34-70 limits assumed): T1 sequence (P10997 34-70 limits assumed)
As to the kind of experiment: ELISA assay for quantitative determination of fibril formation (Example 4). Particulars: for proportion of non-fibrillar IAPP in the supernatant: IAPP 20 μM, inhibitor:IAPP molar ratio 10:1, compared to control. The format is biochemical. How it is done: ELISA Assay for Quantitative Determination of Fibril Formation
Human IAPP (hIAPP) was synthesised by solid state synthesis (Advanced Biotechnologies, UK). Human IAPP forms fibrils immediately in aqueous media. Aliquots of IAPP in water (800 μg/ml) were stored frozen at −20° C. until use. These samples contain small numbers of fibrils visible with electron microscopy (em).
Two sets of samples containing IAPP (20 μM) with or without inhibitors (at a molar ratio of 10:1 with IAPP, (20 μM)) were prepared on day 1 in Tris buffer. One set was centrifuged, the supernatant removed and frozen immediately at −20° C. (Time zero time point). The other set was incubated overnight at room temp with shaking (time 24 h time point). On day 2 these samples were spun and supernatant removed to determine the proportion of non-fibrillar IAPP.
To assay IAPP in the supernatant both sets of samples were serially diluted in bicarbonate coating buffer, added to ELISA wells and incubated overnight. Plates were washed in phosphate buffer containing Tween (PBS/Tw)×3. Diluted antiserum raised against human IAPP was incubated on the plate for 90 minutes at 37° C. Following washing in PBS/Tw, alkaline phosphatase conjugated anti-rabbit antisera was incubated for 90 mins. Following washing in PBS/Tw, alkaline phosphate substrate was added and colour allowed to develop for 30 mins. Optical density was read at 405 nm.
Data from all samples was calculated to determine changes of IAPP concentration in the supernatant induced by the candidate substance immediately (i.e. at time zero) or after 24 h incubation. Data in FIG. 1 is expressed as the proportion of non-fibrillar IAPP in the supernatant of test samples compared to control at both time points.
On the technique in general: An ELISA detects its analyte on a solid surface through an enzyme-linked reagent.

In experiment [4] the target is T1, IAPP. As to the kind of experiment: Circular dichroic spectroscopy (Example 6). The format is biochemical. How it is done:
Circular Dichroic Spectroscopy
Human IAPP was prepared in 100% HFIP at 1 mg/ml filtered through a 0.31 μm filter, freeze dried in aliquots, resuspended in 20% HFIP and water, and filtered before analysis. The circular dichroic spectroscopy was performed in the same manner as described in Hubbard et al (1991) Biochem J, 275, 785-8. Samples were analysed immediately and after 24 h incubation with candidate substances i, iii, iv and x. […] After 24 h incubation the molecular conformation of IAPP (CNTL) was converted to β-conformation. […] This is prevented by the candidate compounds.

The subject of experiment [5] is amyloid in transgenic islets cells expressing human IAPP. The experiment in a line: Electron micrograph analysis of amyloid in cultured transgenic islets. The format is cell-based, mouse. From the text: These are used as a test system for determining the toxicity and effect of putative amyloid inhibitors in short term culture systems. Whereas normal mice can be used to determine toxicity of compounds added to the media, amyloid fibrils form only in murine islets isolated from transgenic mice expressing the gene for human IAPP (transgene incorporation was confirmed by PCR). These islets are isolated in a similar way to that of human islets and are handpicked from the digest and cultured in 16.7 mM glucose as above. Amyloid fibrils formed within 4 days of culture and can be quantified by quantitative electron microscopy. […] The cells were cultured for 6 days in 11.1 mM glucose and RPMI.
Transgenic islets cells were cultured as described above, for 7 days and the media changed every two days. At the end of the culture period the islets were fixed in 2.5% glutaraldehyde in 0.1M sodium phosphate buffer (pH 7.2) for one hour and post-fixed in 1% osmium tetroxide, and embedded in Spurr's resin (Taab Laboratories, Reading, UK) or contrast enhanced in 2% Uranyl Acetate, dehydrated in methanol and embedded in LRGold (Taab, as previous). Ultrathin sections of the islets were mounted on formvar coated nickel grids. Amyloid was identified by immunogold labelling of tissue sections with an antisera raised to human IAPP 1-37, human IAPP 17-37, rat IAPP 1-37 and goat anti-rabbit gold conjugate (10 nm diameter) either from Biocell, Cardiff, UK or Sigma or by use of protein A gold. Grids were examined in a JOEL electron microscrope at an excitation voltage of 80 kV.
Images of 3 islet sections at a low magnification were prepared. A montage of each islet was made from electron micrographs and the areas of both intra and extra cellular amyloid identified and marked. The total islet area, together with the area of intra and extra cellular amyloid was then calculated using image analysis (Kontron Image Processor). 3 separate islets were examined for each condition.

[6] abbreviates: after 24 h incubation, IAPP alone converted to β-conformation.
Setting [7] is: Average of 3 islets, 7 days culture.
Where [8] appears, read: individual islets 1-3, 7 days culture.

Regarding `c1ccc2c(c1)CCNC2` [1,2,3,4-tetrahydroisoquinoline], the IAPP-associated fibril assembly entry in experiment [1] is recorded as “inhibit or prevent IAPP-associated fibril assembly”.

Turning to `O=S(=O)(O)CCCNCCCO` [3-(3-hydroxy-1-propyl)amino-1-propanesulfonic acid], the IAPP-associated fibril assembly entry in experiment [1] is “inhibit or prevent IAPP-associated fibril assembly”. Further, in experiment [2], the result was Active.

In the case of `NCC(O)CS(=O)(=O)O` (stereo not shown) [3-amino-2-hydroxy-1-propanesulfonic acid], the IAPP-associated fibril assembly result in experiment [1] is “inhibit or prevent IAPP-associated fibril assembly”. For the same compound, the result in experiment [2] was Active.

Consider `CN(C)CCCS(=O)(=O)O` [3-dimethylamino-1-propanesulfonic acid], for which the IAPP-associated fibril assembly result in experiment [1] was “inhibit or prevent IAPP-associated fibril assembly”. In addition, in experiment [2], the result was Active.

`COc1ccc(S(=O)(=O)O)c2cccnc12` [8-methoxyquinoline-5-sulfonic acid]: in experiment [1], the IAPP-associated fibril assembly result is listed as “inhibit or prevent IAPP-associated fibril assembly”.

For `O=S(=O)(O)NC1CCCCC1` [cyclohexylsulfamic acid], the IAPP-associated fibril assembly entry in experiment [1] is “inhibit or prevent IAPP-associated fibril assembly”.

Turning to `O=S(=O)(O)CCCNCCCO` [i, 3-(3-hydroxy-1-propyl)amino-1-propanesulfonic acid], the “proportion of non-fibrillar IAPP in the supernatant” value (“proportion of non-fibrillar IAPP” for short) in experiment [3] is reported as “increase the proportion of non-fibrillar IAPP in the supernatant”. The entries for the “molecular conformation of IAPP (CD spectra)” value (shortened to “molecular conformation of IAPP”) in experiment [4] (setting [6]) and in experiment [4] (time zero) were “remained in α-conformation” and “typical CD spectra for α-conformation”, respectively.

Regarding `c1ccc2c(c1)CCNC2` [iii, 1,2,3,4-tetrahydroisoquinoline], in experiment [3], the “proportion of non-fibrillar IAPP” value was “increase the proportion of non-fibrillar IAPP in the supernatant”. In addition, the “molecular conformation of IAPP” value in experiment [4] (setting [6]) is recorded as “remained in α-conformation”; in experiment [4] (time zero), “typical CD spectra for α-conformation”. In experiment [2], the result was Active.

In the case of `O=S(=O)(O)NC1CCCCC1` [iv, Cyclohexylsulfamic acid], in experiment [3], the “proportion of non-fibrillar IAPP” value is reported as “increase the proportion of non-fibrillar IAPP in the supernatant”. For the same compound, the results for the “molecular conformation of IAPP” value in experiment [4] (setting [6]) and in experiment [4] (time zero) were “remained in α-conformation” and “typical CD spectra for α-conformation”, respectively. Also, the result in experiment [2] was Active.

Regarding `NCC(O)CS(=O)(=O)O` (stereo not shown) [ix, 3-amino-2-hydroxy-1-propanesulfonic acid], the “proportion of non-fibrillar IAPP” value in experiment [3] was “increase the proportion of non-fibrillar IAPP in the supernatant”.

On to `N[C@@H](COP(=O)(O)O)C(=O)O` [v, O-Phospho-L-serine], for which the IAPP-associated fibril assembly entry in experiment [1] was “inhibit or prevent IAPP-associated fibril assembly”. Moreover, the “proportion of non-fibrillar IAPP” value in experiment [3] is “increase the proportion of non-fibrillar IAPP in the supernatant”. Further, the outcome in experiment [2] was Active.

With `COc1ccc(S(=O)(=O)O)c2cccnc12` [vii, 8-methoxyquinoline-5-sulfonic acid], the “proportion of non-fibrillar IAPP” value in experiment [3] was “increase the proportion of non-fibrillar IAPP in the supernatant”. Also, in experiment [5] (setting [7]), the “Extra amyloid % of total” value is recorded as 1.6% and the Extra amyloid area was determined as 86.8 μm^2. Besides, in experiment [5] (setting [8]), the “Extra amyloid % of total” value is 1.9% and 0.5% and 3.4%; the Extra amyloid area is 98.73 μm^2 and 37.9 μm^2 and 123.99 μm^2. Besides, the outcome in experiment [2] was Active.

On to `O=S(=O)(O)CCCN1CC=C(c2ccccc2)CC1` [viii, 4-phenyl-1-(3′ sulfopropyl)-1,2,3,6-tetrahydropyridine], for which the IAPP-associated fibril assembly result in experiment [1] is listed as “inhibit or prevent IAPP-associated fibril assembly”. The “proportion of non-fibrillar IAPP” value in experiment [3] is on record as “increase the proportion of non-fibrillar IAPP in the supernatant”. Further, the result in experiment [2] was Active.

Take `CN(C)CCCS(=O)(=O)O` [x, 3-dimethylamino-1-propanesulfonic acid]: the “proportion of non-fibrillar IAPP” value in experiment [3] is recorded as “increase the proportion of non-fibrillar IAPP in the supernatant”. Further, the “time point at which the increase of non-fibrillar IAPP was greater” value in experiment [3] (time zero versus time 24 h) is on record as “greater at time zero”. The “molecular conformation of IAPP” value is listed as “remained in α-conformation” in experiment [4] (setting [6]) and “typical CD spectra for α-conformation” in experiment [4] (time zero).
